Test results as given in ChEMBL document CHEMBL4038264, “Nabscessins A and B, Aminocyclitol Derivatives from Nocardia abscessus IFM 10029T” (J Nat Prod, 2017).
Values after ≈ are worked out from the molar mass of the structure shown. *1 amine or outer side, *2 acyl side, *3 side chain or, on linkers, in order; H or OH if unused. Where a SMILES comes first, the peptide text is derived from it. Bridges are numbered along the chain shown (N, C = ends). [ ]: non-standard residue; d: D form. The star is where a group is joined. hTyr(3S-OH,4S-OH,3'-OSO3H) = N[C@H](C(=O)O)[C@H](O)[C@@H](O)c1ccc(O)c(OS(=O)(=O)O)c1; Orn(4R-OH,5R-OH) = O=C([C@H](C[C@@H](O)[C@@H](O)N[*:3])N[*:1])[*:2]; Pro(3S-OH,4S-Me) = C[C@H]1CN[C@H](C(=O)O)[C@H]1O; X1 = CCCCCOc1ccc(-c2cc(-c3ccc(C(=O)*)cc3)no2)cc1; Gln(3R-OH) = NC(=O)C[C@@H](O)[C@H](N)C(=O)O; Hyp = O=C(O)[C@@H]1C[C@@H](O)CN1

Assays:
Type in all cases: functional
Bacillus subtilis = assay: Antibacterial activity against Bacillus subtilis after 48 hrs by broth micro-dilution method
Cryptococcus neoformans = assay: Antifungal activity against Cryptococcus neoformans after 96 hrs by broth micro-dilution method
Escherichia coli = assay: Antibacterial activity against Escherichia coli after 48 hrs by broth micro-dilution method
Candida albicans = assay: Antifungal activity against Candida albicans after 48 hrs by broth micro-dilution method
Aspergillus niger = assay: Antifungal activity against Aspergillus niger after 96 hrs by broth micro-dilution method
Staphylococcus aureus = assay: Antibacterial activity against Staphylococcus aureus after 48 hrs by broth micro-dilution method
Micrococcus luteus = assay: Antibacterial activity against Micrococcus luteus after 48 hrs by broth micro-dilution method
[1] = test system: Trichophyton mentagrophytes; assay: Antifungal activity against Trichophyton mentagrophytes after 96 hrs by broth micro-dilution method

SMILES	MIC (Bacillus subtilis) [µg/mL]	IC50 (Cryptococcus neoformans) [µg/mL]	MIC (Escherichia coli) [µg/mL]	IC50 (Candida albicans) [µg/mL]	IC50 (Aspergillus niger) [µg/mL]	MIC (Staphylococcus aureus) [µg/mL]	MIC (Micrococcus luteus) [µg/mL]	IC50 [1] [µg/mL]
C[C@@H]1[C@H](O)[C@@H](C)/C=C/C=C/C=C/C=C/C=C/C=C/C=C/[C@H](O[C@@H]2O[C@H](C)[C@@H](O)[C@H](N)[C@@H]2O)C[C@@H]2O[C@](O)(C[C@@H](O)C[C@@H](O)[C@H](O)CC[C@@H](O)C[C@@H](O)CC(=O)O[C@H]1C)C[C@H](O)[C@H]2C(=O)O [AMPHOTERICIN B]	> 31.2	< 0.05	> 31.2	1 (≈ 1.08 µM)	1.8 (≈ 1.95 µM)	> 31.2	> 31.2	3.9 (≈ 4.22 µM)
CCCCCOc1ccc(-c2cc(-c3ccc(C(=O)N[C@H]4C[C@@H](O)[C@@H](O)NC(=O)[C@@H]5[C@@H](O)[C@@H](C)CN5C(=O)[C@H]([C@H](O)CC(N)=O)NC(=O)[C@H]([C@H](O)[C@@H](O)c5ccc(O)c(OS(=O)(=O)O)c5)NC(=O)[C@@H]5C[C@@H](O)CN5C(=O)[C@H]([C@@H](C)O)NC4=O)cc3)no2)cc1 [MICAFUNGIN] (X1-[Orn(4R-OH,5R-OH)]T[Hyp][hTyr(3S-OH,4S-OH,3'-OSO3H)][Gln(3R-OH)][Pro(3S-OH,4S-Me)]; lactam 1-C)	0.5 (≈ 0.394 µM)	< 0.1	> 62.5	< 0.1	< 0.1	0.5 (≈ 0.394 µM)	7.8 (≈ 6.14 µM)	< 0.1
NC[C@H]1O[C@H](O[C@H]2[C@H](O)[C@@H](O[C@H]3O[C@H](CO)[C@@H](O)[C@H](N)[C@H]3O)[C@H](N)C[C@@H]2N)[C@H](O)[C@@H](O)[C@@H]1O [KANAMYCIN]	< 0.1	7.8 (≈ 16.1 µM)	< 0.1	> 62.5	31.3 (≈ 64.6 µM)	< 0.1	1 (≈ 2.06 µM)	7.8 (≈ 16.1 µM)
Cc1cccc(O)c1C(=O)O[C@@H]1[C@@H](O)[C@H](O)[C@@H](NC(=O)c2cccc(O)c2)C[C@H]1OC(N)=O	> 32	32 (≈ 69.5 µM)	> 32	> 32	> 32	> 32	> 32	> 32
CN[C@H]1C[C@@H](N)[C@H](O)[C@@H](O[C@@H]2O[C@H](CO)[C@H](O)[C@@H]3O[C@@]4(O[C@H]23)O[C@H]([C@@H](N)CO)[C@H](O)[C@H](O)[C@H]4O)[C@@H]1O	2 (≈ 3.79 µM)	3.9 (≈ 7.39 µM)	2 (≈ 3.79 µM)	3.9 (≈ 7.39 µM)	1 (≈ 1.9 µM)	0.5 (≈ 0.948 µM)	1 (≈ 1.9 µM)	1 (≈ 1.9 µM)
Cc1cccc(O)c1C(=O)O[C@H]1[C@H](O)[C@@H](O)[C@H](OC(N)=O)C[C@@H]1NC(=O)c1cccc(O)c1	> 32	16 (≈ 34.7 µM)	> 32	> 32	> 32	> 32	> 32	> 32
